# Laboratory results taken from ChEMBL document CHEMBL1157216, “A common protein fold topology shared by flavonoid biosynthetic enzymes and therapeutic targets” (J Nat Prod, 2006).
# What was measured:
# [1] = Inhibition of FGFR
# [2] = Inhibition of PI3K
# [3] = Inhibition of PKC
# [4] = Inhibition of thymocyte protein tyrosine kinase
# [5] = target: Epidermal growth factor receptor (Homo sapiens, UniProt P00533); test: Inhibition of EGFR
# [6] = target: Proto-oncogene tyrosine-protein kinase Src (Homo sapiens, UniProt P12931); test: Inhibition of c-Src
# [7] = target: Cyclin-dependent kinase 6 (Homo sapiens, UniProt Q00534); test: Inhibition of CDK6
# [8] = Inhibition of CK2
# [9] = Inhibition of CK1
# [10] = Inhibition of PKA
# [11] = target: Myosin light chain kinase, smooth muscle (Homo sapiens, UniProt Q15746); test: Inhibition of MLCK
# [12] = Inhibition of CaM kinase
# [13] = Inhibition of Rous sarcoma virus SRC
# [14] = Inhibition of PKD
# Myosin light chain kinase, smooth muscle, sequence (Q15746 whole entry): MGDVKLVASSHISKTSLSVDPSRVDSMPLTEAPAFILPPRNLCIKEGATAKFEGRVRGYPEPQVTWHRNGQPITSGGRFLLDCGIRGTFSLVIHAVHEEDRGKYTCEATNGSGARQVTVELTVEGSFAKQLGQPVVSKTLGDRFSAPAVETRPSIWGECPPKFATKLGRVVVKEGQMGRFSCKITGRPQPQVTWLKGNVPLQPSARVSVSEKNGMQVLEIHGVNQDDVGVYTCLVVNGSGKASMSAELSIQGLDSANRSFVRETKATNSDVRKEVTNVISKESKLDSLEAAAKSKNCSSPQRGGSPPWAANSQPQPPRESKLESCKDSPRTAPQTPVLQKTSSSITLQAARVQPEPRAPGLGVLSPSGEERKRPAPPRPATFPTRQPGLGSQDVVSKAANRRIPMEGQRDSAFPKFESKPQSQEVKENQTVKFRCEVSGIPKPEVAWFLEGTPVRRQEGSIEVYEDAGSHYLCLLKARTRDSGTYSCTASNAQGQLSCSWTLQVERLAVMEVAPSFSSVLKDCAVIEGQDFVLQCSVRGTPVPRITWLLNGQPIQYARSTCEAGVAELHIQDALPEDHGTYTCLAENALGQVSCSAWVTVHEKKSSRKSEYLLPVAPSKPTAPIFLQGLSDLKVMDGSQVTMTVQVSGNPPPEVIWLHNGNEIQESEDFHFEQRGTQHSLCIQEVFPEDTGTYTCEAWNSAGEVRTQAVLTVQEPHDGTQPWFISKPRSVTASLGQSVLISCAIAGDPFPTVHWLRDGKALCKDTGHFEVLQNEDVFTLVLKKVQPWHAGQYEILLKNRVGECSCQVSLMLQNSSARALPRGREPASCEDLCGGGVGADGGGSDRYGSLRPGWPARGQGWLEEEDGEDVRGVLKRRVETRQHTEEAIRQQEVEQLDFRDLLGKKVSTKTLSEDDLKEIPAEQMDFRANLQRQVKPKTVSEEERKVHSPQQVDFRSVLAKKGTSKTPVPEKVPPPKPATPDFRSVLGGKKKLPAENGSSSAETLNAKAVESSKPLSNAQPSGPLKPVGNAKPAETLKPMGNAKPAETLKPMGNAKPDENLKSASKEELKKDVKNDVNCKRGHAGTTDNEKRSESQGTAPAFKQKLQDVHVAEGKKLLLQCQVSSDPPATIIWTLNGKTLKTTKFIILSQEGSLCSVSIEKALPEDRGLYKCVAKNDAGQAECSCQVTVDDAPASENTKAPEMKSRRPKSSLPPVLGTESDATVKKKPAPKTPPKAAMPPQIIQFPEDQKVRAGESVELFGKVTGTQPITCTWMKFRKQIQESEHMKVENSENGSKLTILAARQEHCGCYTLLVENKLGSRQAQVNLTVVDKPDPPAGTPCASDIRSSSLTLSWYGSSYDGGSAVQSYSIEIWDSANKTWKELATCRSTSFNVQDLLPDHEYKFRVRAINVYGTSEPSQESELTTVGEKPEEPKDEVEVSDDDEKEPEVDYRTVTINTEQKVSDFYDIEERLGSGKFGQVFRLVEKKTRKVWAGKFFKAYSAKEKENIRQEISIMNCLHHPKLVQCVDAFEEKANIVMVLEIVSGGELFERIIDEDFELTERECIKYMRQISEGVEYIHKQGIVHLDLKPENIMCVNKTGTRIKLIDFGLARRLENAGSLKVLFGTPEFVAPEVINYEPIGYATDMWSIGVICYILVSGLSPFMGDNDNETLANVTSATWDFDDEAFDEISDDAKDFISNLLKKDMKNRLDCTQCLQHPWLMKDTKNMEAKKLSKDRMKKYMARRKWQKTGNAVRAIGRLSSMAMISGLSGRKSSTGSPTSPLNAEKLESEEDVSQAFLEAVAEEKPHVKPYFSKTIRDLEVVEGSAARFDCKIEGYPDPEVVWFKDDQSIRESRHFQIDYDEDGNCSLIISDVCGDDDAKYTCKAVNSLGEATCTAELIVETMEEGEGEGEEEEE
# Epidermal growth factor receptor, sequence (P00533 whole entry): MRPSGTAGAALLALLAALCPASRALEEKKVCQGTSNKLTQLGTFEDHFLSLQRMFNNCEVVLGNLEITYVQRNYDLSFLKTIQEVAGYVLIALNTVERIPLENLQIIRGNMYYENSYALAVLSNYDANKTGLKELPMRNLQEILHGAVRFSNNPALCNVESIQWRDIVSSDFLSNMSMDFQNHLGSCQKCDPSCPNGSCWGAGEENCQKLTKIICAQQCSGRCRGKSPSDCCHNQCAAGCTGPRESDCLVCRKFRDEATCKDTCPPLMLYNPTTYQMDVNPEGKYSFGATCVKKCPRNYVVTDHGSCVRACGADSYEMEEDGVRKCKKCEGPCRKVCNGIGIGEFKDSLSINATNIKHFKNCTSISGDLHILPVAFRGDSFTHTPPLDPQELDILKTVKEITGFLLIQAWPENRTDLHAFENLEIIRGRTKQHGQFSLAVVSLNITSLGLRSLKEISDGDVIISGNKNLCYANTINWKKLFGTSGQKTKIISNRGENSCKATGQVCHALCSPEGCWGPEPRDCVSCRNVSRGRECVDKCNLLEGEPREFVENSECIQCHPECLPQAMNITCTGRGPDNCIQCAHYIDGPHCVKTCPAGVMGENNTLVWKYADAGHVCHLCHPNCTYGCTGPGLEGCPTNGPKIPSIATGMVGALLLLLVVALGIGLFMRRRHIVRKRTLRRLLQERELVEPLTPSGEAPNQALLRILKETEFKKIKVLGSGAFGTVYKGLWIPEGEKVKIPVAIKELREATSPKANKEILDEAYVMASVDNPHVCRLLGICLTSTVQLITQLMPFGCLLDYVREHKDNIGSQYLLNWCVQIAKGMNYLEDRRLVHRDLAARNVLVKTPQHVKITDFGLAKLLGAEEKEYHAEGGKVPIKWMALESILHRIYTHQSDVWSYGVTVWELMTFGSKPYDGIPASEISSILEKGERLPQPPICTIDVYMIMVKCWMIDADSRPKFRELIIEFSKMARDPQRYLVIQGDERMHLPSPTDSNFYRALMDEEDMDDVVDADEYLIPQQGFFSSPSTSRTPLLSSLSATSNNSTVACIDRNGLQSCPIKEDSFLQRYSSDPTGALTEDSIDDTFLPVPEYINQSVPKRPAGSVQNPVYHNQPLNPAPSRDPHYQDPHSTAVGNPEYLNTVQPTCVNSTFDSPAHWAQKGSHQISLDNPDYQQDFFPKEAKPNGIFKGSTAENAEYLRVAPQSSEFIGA
# Cyclin-dependent kinase 6, sequence (Q00534 whole entry): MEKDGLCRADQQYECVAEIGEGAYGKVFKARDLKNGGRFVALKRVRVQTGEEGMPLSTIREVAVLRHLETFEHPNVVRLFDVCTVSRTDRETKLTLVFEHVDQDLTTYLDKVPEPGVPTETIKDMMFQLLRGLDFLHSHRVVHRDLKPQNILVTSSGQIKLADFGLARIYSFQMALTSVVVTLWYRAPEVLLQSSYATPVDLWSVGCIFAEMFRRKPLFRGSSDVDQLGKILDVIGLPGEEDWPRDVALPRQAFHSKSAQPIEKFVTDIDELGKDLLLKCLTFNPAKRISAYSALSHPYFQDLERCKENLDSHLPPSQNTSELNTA
# Proto-oncogene tyrosine-protein kinase Src, sequence (P12931 2-536 limits assumed): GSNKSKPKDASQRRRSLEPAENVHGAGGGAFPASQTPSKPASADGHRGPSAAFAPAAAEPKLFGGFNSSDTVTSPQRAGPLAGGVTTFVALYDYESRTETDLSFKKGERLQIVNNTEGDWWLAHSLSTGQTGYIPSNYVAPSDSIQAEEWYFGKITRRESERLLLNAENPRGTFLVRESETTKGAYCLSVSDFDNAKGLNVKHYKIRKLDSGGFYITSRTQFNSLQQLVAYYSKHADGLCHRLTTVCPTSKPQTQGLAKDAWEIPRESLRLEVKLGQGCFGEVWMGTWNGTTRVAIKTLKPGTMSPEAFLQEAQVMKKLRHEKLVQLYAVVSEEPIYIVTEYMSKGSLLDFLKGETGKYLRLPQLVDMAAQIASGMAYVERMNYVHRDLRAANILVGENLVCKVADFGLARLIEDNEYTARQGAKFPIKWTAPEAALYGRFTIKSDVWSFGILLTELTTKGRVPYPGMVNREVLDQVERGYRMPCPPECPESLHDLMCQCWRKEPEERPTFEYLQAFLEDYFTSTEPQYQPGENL
compound,measurement,setting,value
O=c1cc(-c2ccc(O)cc2)oc2cc(O)cc(O)c12 [APIGENIN],IC50,[1],20 µM
same,IC50,[2],12 µM
same,IC50,[3],10 µM
same,ID50,[4],90 µg/mL
O=C(/C=C/c1ccc(O)c(O)c1)c1ccc(O)cc1O [BUTEIN],IC50,[5],8 µM
same,IC50,[6],65 µM
O=C1c2ccccc2-[n+]2ccc3c([nH]c4ccccc43)c21 [FASCAPLYSIN CHLORIDE],IC50,[7],3.4 µM
O=c1c(O)c(-c2ccc(O)c(O)c2)oc2cc(O)ccc12 [FISETIN],IC50,[2],10 µM
same,IC50,[4],35 µM
same,IC50,[8],0.35 µM
O=c1cc(-c2ccc(O)c(O)c2)oc2cc(O)cc(O)c12 [LUTEOLIN],IC50,[2],8 µM
O=c1c(O)c(-c2cc(O)c(O)c(O)c2)oc2cc(O)cc(O)c12 [MYRICETIN],Ki,[9],9 µM
same,Ki,[10],27.5 µM
same,IC50,[2],1.8 µM
same,Kd,[2],0.17 µM
same,Ki,[11],1.7 µM
same,Ki,[3],12.1 µM
same,IC50,[8],0.92 µM
same,Ki,[8],0.6 µM
Oc1cc(O)cc(/C=C/c2ccc(O)c(O)c2)c1 [PICEATANNOL],IC50,[10],3 µM
same,IC50,[11],12 µM
same,IC50,[3],8 µM
same,IC50,[12],19 µM
same,Ki,[4],15 µM
O=c1c(O)c(-c2ccc(O)c(O)c2)oc2cc(O)cc(O)c12 [QUERCETIN],Ki,[13],6 µM
same,IC50,[2],3.8 µM
same,Kd,[2],0.28 µM
same,ID50,[4],11 µg/mL
Oc1ccc(/C=C/c2cc(O)cc(O)c2)cc1 [RESVERATROL],IC50,[14],200 µM
same,IC50,[3],90 µM
same,Ki,[3],55 µM
same,IC50,[8],10 µM
same,Ki,[8],1.2 µM
COc1c(O)cc2occ(-c3ccc(O)cc3)c(=O)c2c1O [TECTORIGENIN],IC50,[5],3.3 µM
